What all share (assay): inhibition of tumour cell growth, NCI panel, 48 h
Test [1] has as its system SK-MEL-5 melanoma.
Test [2] concerns PC-3 prostate.
Test [3] has as its system SN12C renal.
In test [4] the test system is NCI-H226 lung.
For test [5], the system named is SF-268 CNS.
The test system of test [6] is SR leukemia.
The subject of test [7] is MDA-MB-435.
The test system of test [8] is EKVX NSCLC.
The test system of test [9] is RPMI-8226 leukemia.
For test [10], the system named is HCC-2998 colon.

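Dose response: 5 concentrations. Exposure: 48 h. Format: 96-well plates. Endpoint: linear interpolation; highest concentration if not reached. GI50 is the concentration that inhibits growth by half. TGI: total growth inhibition.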 Where a SMILES comes first, the peptide text is derived from it. [ ]: non-standard residue; d: D form. Ava = NCCCCC(=O)O; Mpa = O=C(O)CCS

Among the data in PubChem BioAssay (NCI) are TGI and GI50 values, retold here.

On to `CC1=C[P+](c2ccccc2)(c2ccccc2)c2ccccc2O1`, for which the TGI in [1] was 13.5 µM; in [2], 17.1 µM; in test [3], 5.29 µM; in [4] it was 46.2 µM; in test [5], more than 100 µM; in test [6], 8.28 µM. The TGI in test [7] was 12 µM; in [8] it was more than 100 µM.
For `CC(NC(=O)CCS)C(=O)NC(C)C(=O)NC(Cc1c[nH]c2ccccc12)C(=O)NC(Cc1c[nH]cn1)C(=O)NC(CO)C(=O)NC(Cc1c[nH]c2ccccc12)C(=O)NCCCCC(=O)NC(C)C(=O)NC(CCC(N)=O)C(=O)NC(CCCCN)C(=O)NC(C)C(=O)NC(CCCNC(=N)N)C(=O)NC(CCCCN)C(N)=O` (stereo not drawn) ([Mpa]AAWHSW[Ava]AQKARK-NH2; configuration not given here), the TGI in test [1], in [2], in [3], in [9], in [4] and in test [5] was more than 100 µM each time. Moreover, the TGI in [6], in test [7] and in [8] was more than 100 µM throughout.
Regarding `CCC(C)C(Nc1c2ccccc2nc2c(C(=O)NCCN(C)C)cccc12)C(=O)O` (stereo not drawn), the TGI in test [1] was more than 100 µM; in test [2], more than 100 µM; in [3], more than 100 µM; in test [9], more than 100 µM; in [4] it was 32.1 µM; in test [5], 39.4 µM. Besides, the TGI in [6] is more than 100 µM; in test [7] it was 41.9 µM; in test [8], 77 µM.
Consider `CC1[C@@]2(O[C@@H]3C=C4C5CCC6Cc7nc8c(nc7C[C@@]6(C)C5C[C@H](O)[C@@]4(C)[C@]13O)CC1CCc3c(cc4c5c3C(O)C[C@H]5[C@@H](C)C3(O4)OC(C)(C)CC3O)[C@]1(C)C8)O[C@@](C)(CO)C[C@@H]2O` (stereo partly drawn), for which the TGI in [1] is more than 3.72 µM; in test [3] it was more than 3.72 µM; in [9], 0.21 µM; in test [10], more than 3.72 µM; in test [4], 2.35 µM; in [5], 2.65 µM. Besides, the TGI in test [8] was more than 3.72 µM.
In the case of `CN(C)CCNC(=O)c1cccc2c1C(=O)c1ccccc1C2=O`, the TGI in test [1] was 40.2 µM; in [3] it was more than 100 µM; in test [9], more than 100 µM; in [10] it was more than 91.6 µM; in test [4], more than 100 µM; in [5], more than 100 µM. Besides, the TGI in [8] is more than 100 µM.
On to `CCCCn1c(=O)[nH]c2c(N)ncnc21`, for which the TGI in [1], in test [2], in test [3], in test [10], in test [4] and in test [5] was more than 100 µM each time. Further, the TGI in test [7] and in [8] was more than 100 µM throughout.
For the compound `Cc1cc2ncn(CC(=O)O)c2cc1C`, the TGI in [1], in test [2], in test [3], in test [9], in [4] and in test [5] was more than 100 µM in each case. Moreover, the TGI in test [6], in test [7] and in [8] was more than 100 µM each time.
Consider `COc1ccc(N2C(=O)C3ON(Cc4ccc(CC(N)=O)cc4)C(c4c5ccccc5c(C)c5ccccc45)C3C2=O)cc1` (stereo not drawn), for which the TGI in test [2] was more than 100 µM; in test [3], more than 100 µM; in test [5] it was more than 100 µM; in [6], 36.8 µM; in test [7], more than 100 µM; in test [8] it was 54.9 µM.
Regarding `O=C(COc1cc(=O)oc2ccccc12)c1ccccc1`, the TGI is more than 100 µM in test [1]; more than 100 µM in test [3]; more than 100 µM in test [9]; more than 100 µM in test [10]; 49 µM in test [4]; more than 100 µM in test [5]. In addition, the TGI in [6] and in test [8] was more than 100 µM throughout.
As for `CC1=C(C)C(=O)OC(C(C)(O)C2(O)CC3OC34C3CC(O)C56OC5C=CC(=O)C6(C)C3CCC42C)C1` (stereo not drawn), the TGI in test [1] is more than 24.1 µM; in test [2], 14.2 µM; in test [3] it was 14.4 µM; in test [9], 5.34 µM; in test [10], 2.73 µM; in [4], 12.9 µM. Also, the TGI was 7.96 µM in test [5], 4.62 µM in test [7] and 10.4 µM in test [8].
Turning to `C(=N\NC1=NCCCCN1)/c1ccc2ccccc2c1`, the TGI is 31.3 µM in [1]; more than 100 µM in test [2]; more than 100 µM in test [3]; 76.1 µM in [9]; 30.3 µM in [10]; 66.1 µM in test [4]. The TGI is more than 100 µM in test [5], 34.7 µM in test [7] and more than 100 µM in test [8].
In the case of `CC(C)(C)OC(=O)NC(CSCc1ccc(C(=O)c2ccccc2)cc1)C(=O)N1CCN(CCCCN2c3ccccc3Sc3cc(N=[N+]=[N-])ccc32)CC1` (stereo not drawn), the TGI in test [1], in test [2], in test [3], in [10], in [4] and in [5] was more than 100 µM each time. Moreover, the TGI in test [7] and in [8] was more than 100 µM each time.
With `Nc1cc(OCC2CCCCC2)nc(N)n1`, the TGI in test [1], in test [2], in [3], in test [9], in [10] and in test [4] was more than 100 µM each time. Besides, the TGI in test [5], in test [7] and in test [8] was more than 100 µM in each case.
Consider `COc1ccc2c(c1)/C(=C\c1c(Cl)nc3n1CCS3)C(=O)N2`, for which the TGI in [1] was 17.2 µM; in test [2], 20 µM; in [3], 53.3 µM; in [9] it was more than 100 µM; in test [10], 8.31 µM; in test [5], more than 100 µM. The TGI in [7] came to 4.82 µM; in test [8], 77 µM.
As to `Nc1cc(CO)cc(Nc2c3ccccc3nc3ccccc23)c1`, the TGI in test [1] was 30.8 µM; in test [2], 36 µM; in [3], 35.9 µM; in test [9], more than 100 µM; in [4], 34.9 µM; in test [5] it was 60 µM. For the same compound, the results for the TGI in [6], in test [7] and in test [8] were more than 100 µM, 32.6 µM and 31.8 µM, respectively.
On to `CC1=NNC(=O)C1C1(C(=O)O)CC(c2c[nH]c3ccccc23)=NC(=S)N1` (stereo not drawn), for which the TGI in [1] is 27.5 µM; in test [2] it was more than 100 µM; in test [3], more than 100 µM; in test [9], 84.5 µM; in test [4], 85.8 µM; in test [5] it was more than 100 µM. For the same compound, the TGI in test [7] and in test [8] was more than 100 µM throughout.
Consider `C/C(Cc1ccc2c(c1)OCO2)=N\N=c1\sc2ccccc2n1C`, for which the TGI in test [1], in [2], in [3], in [9], in test [10] and in test [4] was more than 100 µM throughout. Moreover, the TGI in [5], in test [7] and in test [8] was more than 100 µM each time.
Take `N=c1oc2cc(O)ccc2cc1C(=O)Nc1ccccn1`: the TGI in [1], in test [2], in test [3], in test [9], in test [10] and in test [4] was more than 100 µM in each case. In addition, the TGI in test [5], in test [7] and in [8] was more than 100 µM throughout.
`Cc1nc2c(Cl)cc(Cl)cc2c2c1CCO2`: the TGI in [1], in [3], in [9], in [10], in test [4] and in test [5] was more than 100 µM in each case. Besides, the TGI in test [6], in test [7] and in [8] was more than 100 µM each time.
For the compound `Cc1cn(S(=O)(=O)c2ccccc2)c2c(OCc3ccccc3)cc([N+](=O)[O-])cc12`, the TGI in test [1], in test [2], in test [3], in test [9], in [10] and in [4] was more than 100 µM each time. Further, the TGI in [5], in [7] and in test [8] was more than 100 µM each time.
With `CC1OC(NCCNCCNC2OC(C)C(O)C(O)C2O)C(O)C(O)C1O` (stereo not drawn), the TGI in test [1], in test [2], in test [3], in test [9], in [4] and in [5] was more than 100 µM in each case. The TGI in test [6] and in [8] was more than 100 µM in each case.
`O=C1C=C(NCCc2ccc(O)c([N+](=O)[O-])c2)C(=O)c2[nH]cnc21`: the TGI in test [1] is 30.3 µM; in test [2], more than 100 µM; in [3], more than 100 µM; in test [9] it was more than 100 µM; in test [10] it was more than 100 µM; in test [7], 33.7 µM. This compound also had a TGI in [8] of 72.2 µM.
Regarding `Nc1nnc(N)n1N`, the TGI in [1], in test [9], in test [10], in test [4], in test [5] and in test [6] was more than 100 µM in each case. The TGI in [8] was more than 100 µM.
For the compound `COc1cc(/C=C/c2ccc(OC)c(OC)c2)oc(=O)c1`, the TGI in [1], in test [3], in [9], in test [10], in test [4] and in test [5] was more than 250 µM throughout. Also, in test [8], the TGI is more than 116 µM.
On to `O=C1c2c(c3c4cc(F)ccc4oc3c3[nH]c4ccccc4c23)C(=O)N1O`, for which the GI50 in test [1] is 1.23 µM; in [2] it was 1.35 µM; in test [9] it was 1.22 µM; in test [10] it was 2.53 µM; in [4], 3.85 µM; in test [5] it was 1.2 µM. Moreover, the GI50 in test [7] is 3.02 µM; in test [8] it was 6.85 µM. For the same compound, the TGI in test [1] is 2.6 µM; in test [2] it was more than 100 µM; in test [9] it was 7.31 µM; in test [10] it was more than 100 µM; in [4] it was 73.8 µM; in test [5], 25.4 µM. Also, the TGI in test [7] is more than 100 µM; in test [8], 65.8 µM.
As to `COc1ccc(C2CC(c3sc(Nc4ccc(C)cc4)nc3C)=NN2)cc1` (stereo not drawn), the TGI in test [1] came to 30.1 µM; in test [3], 28.9 µM; in test [9] it was 41.4 µM; in test [10], 30.1 µM; in test [4], 33.5 µM; in test [5], 37.4 µM. Besides, the TGI in test [8] is 47.8 µM.
Regarding `CC(=O)OCC1OC(n2c(C)c(C)cc(C#N)c2=S)C(OC(C)=O)C(OC(C)=O)C1OC(C)=O` (stereo not drawn), the TGI in test [1], in test [2], in [3], in test [9], in test [10] and in [4] was more than 100 µM throughout. In addition, the TGI in test [5], in [6] and in [8] was more than 100 µM each time.
On to `O=[N+]([O-])c1ccc(C[P+]2(c3ccccc3)CCCCC2)cc1` (tested in a mixture with another compound), for which the TGI in test [1] is 84.2 µM; in [3] it was more than 100 µM; in test [9], more than 100 µM; in test [10], more than 100 µM; in [5] it was more than 100 µM; in [8] it was more than 100 µM.
For `CC(O)C(CO)NC(=O)C1CSSCC(NC(=O)C(N)Cc2ccccc2)C(=O)NC(Cc2ccccc2)C(=O)NC(Cc2c[nH]c3ccccc23)C(=O)NC(CCCCN)C(=O)NC(C(C)O)C(=O)N1` (stereo not drawn), the TGI in test [1], in test [2], in [3], in [9], in [4] and in [5] was more than 100 µM in each case. Besides, the TGI in test [6], in [7] and in test [8] was more than 100 µM in each case.
